The text below walks through data of paper PMC11931445, “A Novel Compound QO‐83 Alleviates Acute and Chronic Epileptic Seizures in Rodents by Modulating KV7 Channel Activity” (CNS Neuroscience & Therapeutics, 2025).

The target of one assay is T1, KV7.2/7.3 (Homo sapiens, UniProt O43525+O43526).
T1 construct: expressed in transfected cells
Briefly: Rb+ efflux high-throughput screening (ICR 8000). The assay is classed as cell-based. From the text:
(§1) The activation effect of QO-83 on the KV7 channel was preliminarily verified using high-throughput screening methodologies.
(§2) [picture] Figure S3: The activation effect of QO-83 on the KV7 channels was preliminarily verified by high-throughput screening. (A)High-throughput screening for KV7.2/7.3 stable expressed in CHO cells (n = 6). (B)High-throughput screening for KV7.4 stable expressed in HEK293 cells (n = 6). (C) High-throughput screening for KCNQ1/E1 transient expression in HEK293 cells (n = 6).
(§3) The high-throughput screening experiment utilizing the ICR 8000 rubidium ion elution method aimed to assess the sensitivity of QO-83 towards KV7.2/3 and KV7.1 channels. Cells in the logarithmic growth phase were seeded into 96-well plates at a density of 2×10^5 cells per well. Following overnight incubation, the medium was replaced with 200 μL of RBCL-loaded buffer and incubated under controlled conditions (5% CO2, 37°C) for 3 hours. The loading buffer composition consisted of 5.4 mM RbCl, 5 mM Glucose, 25 mM HEPES, 150 mM NaCl, 1 mM MgCl2, 0.8 mM NaH2PO4•2H2O, and 2 mM CaCl2.
(§4) Subsequently, the solution was aspirated, and the cells were washed thrice with Washing Buffer (5.4 mM KCl, 25 mM HEPES, 150 mM NaCl, 1 mM MgCl2, 0.8 mM NaH2PO4•2H2O, 2 mM CaCl2). […] Each concentration was distributed across triplicate wells, with corresponding concentration solvent control wells included. […]

A further assay has as its target T2, KV7.4 (Homo sapiens, UniProt P56696).
T2 construct: expressed in transfected cells
The assay is described as follows: Rb+ efflux high-throughput screening (ICR 8000). The assay is classed as cell-based.
Source text: as §1, §2, §3, §4

The next assay concerns the target T3, KV7.1/KCNE1 channel (Homo sapiens, UniProt P51787).
T3 construct: expressed in transfected cells; host or cells: HEK293, transient expression
The assay is described as follows: Rb+ efflux high-throughput screening (ICR 8000). The assay is classed as cell-based. Particulars: up to 100 μM, transient expression in HEK293 cells. The protocol: Furthermore, the KV7.1 channel, which co-expresses with the auxiliary subunit KCNE1 to form slowly activated delayed rectifier potassium currents (IKs) during cardiac repolarization, was evaluated using the Rb^+ efflux high-throughput screening technique to determine the opening activity of QO-83 on the KCNQ1/E1 channel.
as §2
The high-throughput screening experiment utilizing the ICR 8000 rubidium ion elution method aimed to assess the sensitivity of QO-83 towards KV7.2/3 and KV7.1 channels. Cells in the logarithmic growth phase were seeded into 96-well plates at a density of 2×10^5 cells per well. Following overnight incubation, the medium was replaced with 200 μL of RBCL-loaded buffer and incubated under controlled conditions (5% CO2, 37°C) for 3 hours. The loading buffer composition consisted of 5.4 mM RbCl, 5 mM Glucose, 25 mM HEPES, 150 mM NaCl, 1 mM MgCl2, 0.8 mM NaH2PO4•2H2O, and 2 mM CaCl2. […]

Another assay relates to electroshock seizures. The assay is described as follows: Maximal electroshock seizure (MES) model. The assay is classed as in vivo, Kunming mice. As to conditions: 15 mg/kg i.p. (In the maximal electroshock model the usual endpoint is tonic extension of the hind limbs.)
Another assay deals with PTZ-induced seizures. Briefly: Metrazol maximal seizure (MMS) model. The assay is classed as in vivo, C57BL/6J mice. As to conditions: 15 mg/kg. The protocol: For this experimental phase, male C57BL/6J mice weighing between 18 g and 25 g were randomly assigned to four groups based on their body weight. The QO‐83 group was divided into two subgroups, one receiving a dosage of 1 mg/kg (i.p.) and the other receiving a dosage of 3 mg/kg (i.p.).
PTZ (85 mg/kg, 0.1 mL per 10 g) was administered subcutaneously at the nape of the neck. Subsequently, mice were promptly placed in individual transparent observation chambers under quiet conditions. A stopwatch was utilized to measure seizure latency, defined as the time from PTZ injection to the onset of a generalized systemic clonic seizure and loss of the […]. The number of animals experiencing seizures was manually recorded.

A further assay concerns PTZ kindling seizures. Briefly: Chronic PTZ-induced epileptic kindling model. It counts as in vivo, Wistar Institute rats.

Protocol for PTZ kindling seizures: In the preparation of the chronic PTZ‐induced epileptic kindling model, male Wistar Institute rats weighing between 180 and 250 g were utilized. […] During the modeling period, all groups received daily intraperitoneal injections of 0.2 mL/100 g between 9:00 and 15:00.
Seizure severity was assessed using the Racine scale.

As usually defined, the EC50 is the concentration giving half of the maximal effect. As for `CCOC(=O)Nc1ccc(NCc2ccc(F)cc2)cc1N` [RTG, retigabine], the EC50 at KV7.2/7.3 was 180 ± 70 nM; on KV7.4, 1380 ± 310 nM. In addition, on KV7.1/KCNE1 channel, the “opening activity on KV7.1/KCNE1 channel” value was “did not affect”. In addition, the electroshock protection rate in the assay on electroshock seizures is on record as 90%. In the assay with PTZ-induced seizures, this compound showed a seizure protection rate of 40%. The “effect on latency period” value with PTZ kindling seizures (10 mg/kg) is listed as “significantly prolong the latency period”. For the same compound, in the assay on PTZ kindling seizures (10 mg/kg i.p. daily, 30th day, model 4.68 ± 0.62), the seizure grade is recorded as 1.75 ± 0.31.
